# Counter-ions that a name gives are not always drawn. Like-named read-outs stand apart in the source and are kept apart here.
# Key:
# glioma cell line U87 = test: Drug screening, AlamarBlue assay in U87; assay type: cell-based; conditions: for inhibition at 1 µM: Glioma cell, 144 h, read-out: reduction of the relative metabolic activity of U87
# Experimental: (§1) Experiments were performed in triplicates for each sample.
# For comparison with our four patient-specific primary GBM cell specimens, we used the commercially available glioma cell line U87 that is frequently investigated in drug discovery settings (FIG. 2).
# [1] = test system: #155 cells (primary cells from a patient with pharmacoresistent epilepsy); test: Drug screening, AlamarBlue assay in #155 control cells; assay type: cell-based, human; conditions: 1 μM
# Experimental: as §1
# As an alternative control, primary cells were evaluated, which were obtained from a patient suffering from pharmacoresistent epilepsy (patient #155).
# [2] = test system: four patient-specific primary GBM cultures; conditions: for effect on the primary GBM cells' metabolic activity: 1 μM
# Experimental: Before screening, cell number was titrated for each cell line separately to ensure that cell proliferation remained in a linear-exponential phase throughout the experiment. 24 hours after seeding 2−3×10^3 cells/well into laminin/poly-L-ornithine coated 96-well plates, primary cultures were treated with 2 nM, 1 μM or 10 μM of each compound (stock solution 10 mM in DMSO). As a reference we treated cells with 50 μM and 500 μM temozolomide (TMZ, SigmaAldrich, Taufkirchen, Germany; stock solution of 100 mM in DMSO). Control cells were treated with 0.5-0.01% DMSO. Six days after application, cell viability was determined using the AlamarBlue® assay according to the manufacturers recommendations (Invitrogen, Karlsruhe, Germany). Fluorescence was measured using an Infinite200 microplate reader (Tecan, Crailsheim, Germany) at Xex=540 nm and Xem=590 nm. Experiments were performed in triplicates for each sample.
# To identify cytotoxic and cytostatic compounds, we conducted in vitro drug-screening assays in four different patient-specific primary GBM cultures (see Table 1 for basic characterization of research specimens).
# The compound library was screened at three different concentrations (10 μM, 1 μM, 2 nM). The relative metabolic activity was determined after a 5-day incubation with compounds. […] For reference, we applied 50 μM (reported plasma peak concentration) and 500 μM of temozolomide (TMZ, as described in Beier et al., 2008), the current standard chemotherapeutic GBM drug to our cells. […] However, “hits” in the setting of a primary screening were defined as a reduction of the relative metabolic activity under the level of 50% of DMSO-treated control cells.
# [3] = in vivo; cited from earlier work
# [4] = test system: GBM primary cells (035, 046); test: Long-term monitoring of cell confluency (CellaVista); assay type: cell-based, human; conditions: single dose 1 μM, post compound application
# Experimental: FIG. 8: Long-term monitoring of cellular confluency post application of 1 μM pristimerin (dotted lines) in two independent GBM primary cell culture experiments (035=triangle; 046=squares) (solid line, 0.1% DMSO). Live cell-imaging was performed using the CellaVista system according to its specifications (Roche Diagnostics).
# We used the CellaVistasystem (Roche Diagnostics, Mannheim) for monitoring of cell confluency as a surrogate analysis tool.
# [5] = test system: patient-specific GBM primary cells; test: Pharmacodynamic analysis of pristimerin, AlamarBlue (ICM50); assay type: cell-based; conditions: Homo sapiens, 120 h
# Experimental: For pharmacodynamic analyses of pristimerin and niclosamide 5×10^4 cells were plated in 12 well plates 24 h before they were treated with concentrations indicated. 5 days after the treatment, cell viability was monitored by the AlamarBlue® assay. Experiments were performed in triplicates. The ICM50 is the concentration of agent that reduced the metabolic activity by 50% under the experimental conditions.
# Pristimerin induces apoptosis in GBM primary cells. […] Because the peak plasma concentration of pristimerin is not yet known, we investigated a range of concentrations between 70 nM and 10 μM (FIG. 5). Under these conditions, pristimerin is potently cytotoxic at median ICM50's (half maximal inhibitory concentration of metabolic activity) of approximately 500 nM (FIG. 5a,b,d)
# [6] = test system: clonogenic, neurosphere-forming GBM cells; test: Neurosphere assay after pristimerin; assay type: cell-based, human; conditions: single dose 1 μM, cases 046, 078, 106
# Experimental: Based on previous investigations (Scheffler et al., 2005), a single cell suspension of 1×10^4 cells/cm^2 was diluted in 1% methylcellulose-containing PROL media provided with 20 ng/ml EGF/bFGF, and inoculated into nonadhesive culture dishes. 10 ng/ml EGF/bFGF was then added every other day. Neurospheres were quantified at 21 days in culture, triturated to a single cell suspension, which was used for plating under identical conditions and analysis of the formation of secondary or higher degree neurospheres. For analysis of multipotency, a representative fraction of 3° neurospheres were used. Neurospheres were plated onto laminin/poly-L-ornithine coated glass coverslips and, after attachment, provided with PROL media devoid of mitogens to allow differentiation for 2-3 weeks in culture before PFA-fixation and immunofluorescence analysis.
# Furthermore, a single dose of pristimerin decreased the frequency of clonogenic, i.e. neurosphere-forming cells by 30-60% (FIG. 9a,b). Depletion of clonogenic cells was never observed at concentrations of […]. Clonogenic cells were always able to selfrenew and form higher-degree neurospheres that gave rise to immature neurons and astrocytes (FIG. 9c). These findings indicate that Pristimerin is not selectively inhibiting GBM cancer stem cells. […]
# [7] = test system: patient-specific GBM primary cultures; test: AnnexinV-based FACS analysis of apoptosis; assay type: cell-based, human; conditions: 1 μM, 5-day exposure, in 7 out of 8 cultures
# Experimental: […] 1×10^5 cells were sedimented by centrifugation, resuspended in […] AnnexinV buffer (BD Bioscience, Heidelberg, Germany) and incubated with 5 μl Annexin V-FITC (BD Bioscience, Heidelberg, Germany) for 1 h at RT. To distinguish between living and dead cells, labeling with 1.2 μg/ml bisbenzimide H33258 (Invitrogen, Karlsruhe, Germany) was used. Expression was determined using standard conditions in a LSRII equipped with FACSDiva Software (BD Bioscience, Heidelberg, Germany). For each measurement, 20.000 cells were counted. Annexin V positive cells, Annexin V and H33258 positive cells and H33258 positive cells were termed avital cells.
# These effects could be validated as compound-specific, based on analysis of Pristimerin purchased from an independent supplier that yielded similar results (Sigma; FIG. 1b). For further experimentation, pristimerin was applied at 1 μM concentrations (FIG. 1c). […] In 7 out of 8 investigated patient-specific GBM primary cultures more than 50% of all cells could be classified as avital (FIG. 6; ***p<0.001, compared to their respective DMSO-treated control cells).
# GBM primary cells = test: Growth kinetic analysis (proliferation kinetics); assay type: cell-based, human; conditions: single dose 1 μM
# Experimental: Five days after treatment in 6 cm dishes, 47,000 vital cells were plated into 3.5 cm laminin/poly-L-ornithine coated plastic dishes. 20 ng/ml EGF/bFGF were provided upon plating, and 10 ng/ml EGF/bFGF were added every other day thereafter. Four-to-six days later, adherent cells were trypsinized, harvested, counted, and plated at a density of 4.7×10^4 cells. This procedure was repeated for 4-5 passages. Mean values are presented with standard error.
# Cells surviving the application of Pristimerin expand linearly on a logarithmic scale. There is an initial delay of cell growth lasting for a maximum of 10 days. However, thereafter, every patient-specific GBM primary culture we investigated thus far continued to proliferate as well as their respective DMSO-control (FIG. 7).
# [8] = test system: GBM primary cells under non-adherent conditions (neurospheres); test: Pristimerin in 3D culture, non-adherent growth conditions (ICM50); assay type: cell-based; conditions: Homo sapiens, single dose, specimens 046, 078, 106
# Excerpt: FIG. 11: Inhibition of GBM primary cells under adherent (solid line) vs. non-adherent (dotted line) conditions. Results represent the mean of triplicate-well-analysis for 3 different specimens at each concentration (046, 078, 106)
# The GBM-inhibitory activity of Pristimerin was confirmed in 3D culture systems, i.e. non-adherent growth conditions (FIG. 11). Under anchorage-withdrawal, GBM cells form neurospheres, and investigation of their metabolic response patterns indicated a more resistant phenotype.
compound,measurement,setting,value
COc1cc([C@@H]2c3cc4c(cc3[C@@H](O[C@@H]3O[C@@H]5CO[C@@H](c6cccs6)O[C@H]5[C@H](O)[C@H]3O)[C@H]3COC(=O)[C@H]23)OCO4)cc(OC)c1O [Teniposide],inhibition at 1 µM,glioma cell line U87; 1 μM,≤ 50%
same,effect on the metabolic activity of the #155 cells,[1],very little effect
"O=C1C(Cl)=C(Cl)C(=O)c2c(O)ccc(O)c21 [2,3-dichloro-5,8-dihydroxynapthoquinone]",effect on the primary GBM cells' metabolic activity,[2],no significant effect
same,effect on the metabolic activity of the #155 cells,[1],diminished the metabolic activity of the #155 cells significantly
CC[C@]1(O)C[C@H]2CN(CCc3c([nH]c4ccccc34)[C@@](C(=O)OC)(c3cc4c(cc3OC)N(C=O)[C@H]3[C@@](O)(C(=O)OC)[C@H](OC(C)=O)[C@]5(CC)C=CCN6CC[C@]43[C@@H]65)C2)C1 [vincristine sulfate],effect on the metabolic activity of the #155 cells,[1],very little effect
C[C@@]12C(=O)OC(=O)[C@]1(C)[C@H]1CC[C@@H]2O1 [Cantharidin],effect on the primary GBM cells' metabolic activity,[2],no significant effect
same,effect on the metabolic activity of the #155 cells,[1],diminished the metabolic activity of the #155 cells significantly
N=c1ccn2c(n1)O[C@H]1[C@H](O)[C@@H](CO)O[C@H]12 [Ancitabine hydrochloride],inhibition at 1 µM,glioma cell line U87; 1 μM,≤ 50%
C=C(C)[C@H]1Cc2c(ccc3c2O[C@@H]2COc4cc(OC)c(OC)cc4[C@@H]2C3=O)O1 [Rotenone],inhibition at 1 µM,glioma cell line U87,≤ 50%
same,effect on the metabolic activity of the #155 cells,[1],very little effect
"Cn1nnc2c(C(N)=O)ncn2c1=O [TMZ, temozolomide]",reduction of relative metabolic activity,"[2]; 50 μM TMZ, mean of four patient-specific primary cultures",17%
same,"relative metabolic activity, level","[2]; 500 μM TMZ, mean of four patient-specific primary cultures",63%
same,reported plasma peak concentration,[3],50 µM
COC(=O)[C@]1(C)CC[C@]2(C)CC[C@]3(C)C4=CC=C5C(=CC(=O)C(O)=C5C)[C@]4(C)CC[C@@]3(C)[C@@H]2C1 [Pristimerin],time before surviving cells take on proliferative activity,[4],≥ 10 days
same,reduction of metabolic activity,"[2]; case 023, 1 μM",90%
same,reduction of metabolic activity,"[2]; case 035, 1 μM",97%
same,reduction of metabolic activity,"[2]; case 046, 1 μM",78%
same,reduction of metabolic activity,"[2]; case 106, 1 μM",97%
same,inhibition at 1 µM,glioma cell line U87,≤ 50%
same,IC50,"[5]; 70 nM to 10 μM, 5 days post application, read-out: median ICM50 (half maximal inhibitory concentration of metabolic activity)",~500 nM
same,IC50,"[5]; Microsource compound, 5 days, read-out: median ICM50",580 nM
same,IC50,"[5]; Sigma compound, 5 days, read-out: median ICM50",430 nM
same,"decrease of frequency of clonogenic, neurosphere-forming cells",[6],30-60%
same,cells classified as avital,[7],more than 50%
same,initial delay of cell growth,GBM primary cells,≤ 10 days
same,IC50,[8],1100 nM
O=c1[nH]c(=O)n([C@H]2C[C@H](O)[C@@H](CO)O2)cc1F [Floxuridine],inhibition at 1 µM,glioma cell line U87; 1 μM,≤ 50%
same,effect on the metabolic activity of the #155 cells,[1],very little effect
CC[C@H]1CN2CCc3cc(OC)c(OC)cc3[C@@H]2C[C@@H]1C[C@H]1NCCc2cc(OC)c(OC)cc21 [emetine],effect on the metabolic activity of the #155 cells,[1],very little effect
CC[C@@]1(O)C(=O)OCc2c1cc1n(c2=O)Cc2cc3ccccc3nc2-1 [camptothecin],effect on the metabolic activity of the #155 cells,[1],very little effect
COc1cc(O)c2c(c1)C(=O)c1cc(C)cc(O)c1C2=O [Physicion],effect on the primary GBM cells' metabolic activity,[2],without affecting
same,influence on the U87's metabolic activity,glioma cell line U87; 1 μM,significant influence
CCCCCCCCCCCCCC(=O)O[C@@H]1[C@@H](C)[C@@]2(O)[C@@H](C=C(CO)C[C@]3(O)C(=O)C(C)=C[C@@H]23)[C@@H]2C(C)(C)[C@]12OC(C)=O [phorbol myristate acetate],effect on the primary GBM cells' metabolic activity,[2],no significant effect
same,effect on the metabolic activity of the #155 cells,[1],diminished the metabolic activity of the #155 cells significantly
O=C(Nc1ccc([N+](=O)[O-])cc1Cl)c1cc(Cl)ccc1O [Niclosamide],inhibition at 1 µM,glioma cell line U87; 1 μM,≤ 50%
same,effect on the metabolic activity of the #155 cells,[1],very little effect
Nc1nc2nc[nH]c2c(=S)[nH]1 [Thioguanine],inhibition at 1 µM,glioma cell line U87; 1 μM,≤ 50%
same,effect on the metabolic activity of the #155 cells,[1],very little effect
CC[C@@]1(O)C(=O)OCc2c1cc1n(c2=O)Cc2cc3cc(O)ccc3nc2-1 [10-Hydroxycamptothecin],effect on the metabolic activity of the #155 cells,[1],very little effect
COc1cc([C@@H]2c3cc4c(cc3[C@H](O)[C@H]3COC(=O)[C@@H]23)OCO4)cc(OC)c1OC [Picropodophyllotoxin],inhibition at 1 µM,glioma cell line U87,≤ 50%
same,effect on the metabolic activity of the #155 cells,[1],very little effect
C=C1[C@@H](C)[C@H]2[C@H](Cc3ccccc3)NC(=O)[C@]23[C@H](OC(C)=O)/C=C/[C@@](C)(O)C(=O)[C@@H](C)C/C=C/[C@H]3[C@@H]1O [cytochalasin D],effect on the primary GBM cells' metabolic activity,[2],no significant effect
same,effect on the metabolic activity of the #155 cells,[1],diminished the metabolic activity of the #155 cells significantly
CN(Cc1cnc2nc(N)nc(N)c2n1)c1ccc(C(=O)N[C@@H](CCC(=O)O)C(=O)O)cc1 [Methotrexate],inhibition at 1 µM,glioma cell line U87; 1 μM,≤ 50%
same,effect on the metabolic activity of the #155 cells,[1],very little effect
CC(=O)O[C@H]1C(=O)[C@@]2(C)[C@H]([C@H](OC(=O)c3ccccc3)[C@]3(O)C[C@H](OC(=O)[C@H](O)[C@@H](NC(=O)c4ccccc4)c4ccccc4)C(C)=C1C3(C)C)[C@]1(OC(C)=O)CO[C@@H]1C[C@@H]2O [paclitaxel],effect on the metabolic activity of the #155 cells,[1],very little effect

# Source: patent publication US9573960B2, “Glioblastoma inhibiting compounds and their use” (Life & Brain GmbH, priority 2011, dated 2017)
